In EP4650362A1, “NEUROPROTECTIVE PSD-95 POLYPEPTIDE INHIBITOR AND USE THEREOF” (Beijing Tuo Jie Biopharmaceutical Co. Ltd., priority 2023, dated 2024):
“And” between values parts separate entries of the source, which are not always exact repeats. Equal values may be shown once. Read-outs that look alike come from different tables or passages of the source. Non-standard residues stand in square brackets, D forms with d. Residues, ends and D or L forms follow the SMILES beside them. No end group written: not given here. Tle = CC(C)(C)[C@H](N)C(=O)O; Dab = NCC[C@H](N)C(=O)O; Aib = CC(C)(N)C(=O)O

Key:
[1] = pharmacokinetic study in rats, single intravenous bolus injection; assay type: in vivo, SD rats; details: rats; for Cmax: read-out: Cmax; for half-life: read-out: T1/2 (converted)
Description: With male SD rats as test animals, the pharmacokinetic behavior of polypeptide compounds administered via single intravenous bolus injection in rats (plasma) was studied.
Male SD rats weighing 170 to 200 grams and aged 4-6 weeks were purchased from Beijing Vital River Laboratory Animal Technology Co., Ltd. The polypeptide compounds were dissolved in 1× PBS, and the polypeptide compound solutions were then administered via intravenous bolus injection over 10 min at a dose of 3 nmol/g, with three animals per group. At each of the time points of 2 min, 8 min, 15 min, 30 min, 45 min, 60 min, and 120 min after the end of bolus injection, 0.2 mL of blood was collected and transferred to an EDTA-K2 anticoagulation centrifuge tube. The whole blood sample was centrifuged at 4 °C at 4000 g for 5 min, and a plasma sample was obtained by separation and cryopreserved at -80 °C.
The pharmacokinetic parameters of polypeptide compound 22, administered via intravenous bolus injection, in rats were determined using a similar method, with the difference being that an enzyme inhibitor was added immediately after blood collection.
The plasma concentrations of the test compounds were determined using the method in Test Example 3.4.3. Plasma concentration-time curves were plotted, and the pharmacokinetic parameters were calculated using PKSolver software. The experimental results are shown in Table 5-1, Table 5-2, and FIG. 3.

[2] = test system: rabbit whole blood; assay: hemolysis risk test in rabbit whole blood; assay type: cell-based; details: concentration range of 1 to 50 µM
Description: Preparation of red blood cell suspension: 100 µL of fresh whole blood was collected, and 900 µL of 1× PBS solution was then added. The mixture was shaken on a plate shaker at 30 rpm for 5 min and then centrifuged at 1000 g for 5 min, and the supernatant was discarded. The above washing step was repeated until the supernatant no longer appeared red. The suspension was set aside for later use.
Preparation of test polypeptide solutions: An appropriate amount of 1× PBS solution was added to a powdered polypeptide, and the polypeptide was dissolved to form a standard stock solution. The stock solution was then diluted with 1× PBS to form test solutions with concentrations of 1, 3, 10, 30, 100, and 300 µg/mL, and two replicate wells were set for each concentration. Meanwhile, blank 1× PBS was used as a negative control, and a 1× PBS solution containing 0.1% Triton X-100 was used as a positive control.
Incubation: A test solution (500 µL) was added to the red blood cell suspension, and then the mixture was well shaken on a plate shaker at 30 rpm for 5 min, incubated at 37 °C for 1 h, and centrifuged at 1000 g for 5 min.
100 µL of the supernatant was transferred to a single well of a microplate. The absorbance at 540 nm was measured using a SpectraMax M5 microplate reader, and data analysis was performed using GraphPad Prism 9. The hemolysis rate (%) was calculated using the formula: (test sample absorbance - negative control absorbance) / (positive control absorbance - negative control absorbance) × 100%. A rate of less than 5% indicates the absence of hemolysis, while a rate of greater than 5% indicates the presence of hemolysis. Table 3. Testing of the hemolysis risk of the polypeptide compound
A method similar to that in section 3.3.2 was adopted, with the difference being that this test example used fresh rabbit whole blood instead.

[3] = plasma stability test with alteplase added, rat plasma; assay type: in vitro ADME; details: Rat plasma + rt-PA (50 µg/mL alteplase), 25 µM
Description: Solution preparation: An appropriate amount of a test polypeptide compound was weighed out and dissolved in an appropriate amount of 1× PBS to form a 1 mM test solution. NA-1 and NoNO42 were used as positive drugs, propantheline bromide was used as a human plasma test control, and lovastatin was used as a rat plasma test control. Plasma stability test: 12.5 µL of the 1 mM test solution was added to a 495 µL pre-incubated plasma sample. […] For each incubation time, two parallel samples were set. Subsequently, 200 µL of stop solution was added to stop the incubation, and the mixtures were vortexed for 5 min. Then the mixtures were centrifuged at 10,000 rpm at 4 °C for 10 min to remove the protein in the sample, and 70 µL of the supernatant was transferred to a new 96-well plate (70 µL of water was added to each well beforehand) and well mixed. Plasma stability test with alteplase added: An appropriate amount of solid alteplase was weighed out, and an appropriate volume of water was added. The mixture was vortexed to dissolve alteplase, forming a 1 mg/mL solution of alteplase. 250 µL of the 1 mg/mL solution of alteplase was added to 4750 µL of plasma to form a plasma sample containing 50 µg/mL alteplase. The other procedures were the same as in the aforementioned "plasma stability test", with the difference being that the plasma sample containing 50 µg/mL alteplase was used instead of plasma. […] Sample pretreatment: […] LC-MS analysis: […] (2) Mass-spectrometric conditions: The mass spectrometry analysis used an electrospray ionization (ESI) source, a positive ion analysis mode, and a multi-reaction monitoring (MRM) scan mode. […] The plasma stability of the polypeptide compound

[4] = nephrotoxicity in rats (blood urea nitrogen, serum creatinine); assay type: in vivo, SD rats; details: for Blood urea nitrogen (BUN) levels / Serum creatinine (Crea) levels: rat serum; for renal safety concerns: within the tested concentration range, 7-day monitoring period
Description: With male SD rats as test animals, the nephrotoxicity of a polypeptide compound administered via single intravenous bolus injection in rats (serum) was studied.
This test was performed synchronously with Test Examples 3.6, with blood collection time points set as follows: before administration (day 0), and days 2, 4, and 7 post-administration. At each time point, 0.3 mL of blood was collected, transferred to a centrifuge tube, and left to stand at room temperature for 1 h. Then the whole blood sample was centrifuged at 4 °C at 4000 g for 5 min, and a serum sample was obtained by separation and cryopreserved at -80 °C.
The blood urea nitrogen (BUN) and serum creatinine levels at each time point were determined through commercially available kits. For blood urea nitrogen, the urease continuous monitoring method was used. For serum creatinine, the sarcosine oxidase method was used. The sample was thawed in a refrigerator at 2 to 8 °C and vortexed for thorough mixing, and 100 µL of the sample was pipetted into a sample cup. The cup was placed in the sample position of a biochemistry analyzer, and assays were performed according to the instructions of the kits. The experimental results are shown in Tables 8-1 and 8-2, FIG. 5A, and FIG. 5B.

[5] = male, SD, rat, plasma, intravenous bolus injection over 10 min, 3 nmol/g, n = 3
[6] = intravenous bolus injection over 10 min, 3 nmol/g, n = 3
[7] = 0.3 nmol/g, day 0 (before administration)
[8] = 1 nmol/g, day 0 (before administration)
[9] = 3 nmol/g, day 0 (before administration)
[10] = intravenous bolus injection, enzyme inhibitor added immediately after blood collection, n = 3

CC(C)[C@H](NC(=O)[C@H](CC(=O)O)NC(=O)[C@@H](NC(=O)[C@@H](NC(=O)[C@@H](NC(=O)[C@@H](NC(=O)[C@H](CCN)NC(=O)C(C)(C)NC(=O)CNC(=O)[C@@H](CCCNC(=N)N)NC(=O)[C@@H](CCCNC(=N)N)NC(=O)[C@@H](CCCNC(=N)N)NC(=O)[C@@H](CCC(N)=O)NC(=O)[C@@H](CCCNC(=N)N)NC(=O)[C@@H](CCCNC(=N)N)NC(=O)[C@@H](CCCCN)NC(=O)[C@@H](CCCCN)NC(=O)[C@@H](CCCNC(=N)N)NC(=O)CNC(=O)[C@H](N)Cc1ccc(O)cc1)[C@@H](C)O)C(C)(C)C)C(C)(C)C)[C@@H](C)O)C(=O)O [Polypeptide compound 14, y-G-r-k-k-r-r-q-r-r-r-G-Aib-Dab-T-Tle-Tle-T-D-V] (H-[dY]G[dR][dK][dK][dR][dR][dQ][dR][dR][dR]G[Aib][Dab]T[Tle][Tle]TDV-OH)
AUC(0-inf) [1, 5]: 9900 ng·h/mL | MRT [1, 5]: 71.4 min | AUC(0-t) ([1]; male, SD, rat, plasma, intravenous bolus injection over 10 min, 3 nmol/g, n = 3, read-out: AUC(0-t)): 7910 ng·h/mL | Cmax [1, 5]: 15100 ng/mL | half-life [1, 5]: 56.4 min | AUClast/dose [1, 6]: 1041 | hemolysis rates [2]: less than 5% | Relative remaining compound content (%) ([3]; 0min (standard 100%)): 100.0% | Relative remaining compound content (%) ([3]; 10min): 95.6% | Relative remaining compound content (%) ([3]; 20min): 90.4% | Relative remaining compound content (%) ([3]; 30min): 104.9% | Relative remaining compound content (%) ([3]; 60min): 105.4% | Relative remaining compound content (%) ([3]; 120min): 96.7% | Blood urea nitrogen (BUN) levels [4, 7]: 11.8 ± 0.1 mg/dL | Serum creatinine (Crea) levels [4, 7]: 0.192 ± 0.006 mg/dL | Blood urea nitrogen (BUN) levels ([4]; 0.3 nmol/g, day 2): 13.7 ± 3.7 mg/dL | Serum creatinine (Crea) levels ([4]; 0.3 nmol/g, day 2): 0.200 ± 0.015 mg/dL | Blood urea nitrogen (BUN) levels ([4]; 0.3 nmol/g, day 4): 16.6 ± 4.6 mg/dL | Serum creatinine (Crea) levels ([4]; 0.3 nmol/g, day 4): 0.212 ± 0.024 mg/dL | Blood urea nitrogen (BUN) levels ([4]; 0.3 nmol/g, day 7): 15.3 ± 5.2 mg/dL | Serum creatinine (Crea) levels ([4]; 0.3 nmol/g, day 7): 0.205 ± 0.023 mg/dL | Blood urea nitrogen (BUN) levels [4, 8]: 14.2 ± 3.0 mg/dL | Serum creatinine (Crea) levels [4, 8]: 0.195 ± 0.013 mg/dL | Blood urea nitrogen (BUN) levels ([4]; 1 nmol/g, day 2): 15.5 ± 1.8 mg/dL | Serum creatinine (Crea) levels ([4]; 1 nmol/g, day 2): 0.203 ± 0.018 mg/dL | Blood urea nitrogen (BUN) levels ([4]; 1 nmol/g, day 4): 17.1 ± 2.7 mg/dL | Serum creatinine (Crea) levels ([4]; 1 nmol/g, day 4): 0.208 ± 0.017 mg/dL | Blood urea nitrogen (BUN) levels ([4]; 1 nmol/g, day 7): 13.7 ± 1.4 mg/dL | Serum creatinine (Crea) levels ([4]; 1 nmol/g, day 7): 0.221 ± 0.005 mg/dL | Blood urea nitrogen (BUN) levels [4, 9]: 16.3 ± 1.0 mg/dL | Serum creatinine (Crea) levels [4, 9]: 0.22 ± 0.015 mg/dL | Blood urea nitrogen (BUN) levels ([4]; 3 nmol/g, day 2): 16.2 ± 0.7 mg/dL | Serum creatinine (Crea) levels ([4]; 3 nmol/g, day 2): 0.208 ± 0.006 mg/dL | Blood urea nitrogen (BUN) levels ([4]; 3 nmol/g, day 4): 16.0 ± 2.0 mg/dL | Serum creatinine (Crea) levels ([4]; 3 nmol/g, day 4): 0.226 ± 0.012 mg/dL | Blood urea nitrogen (BUN) levels ([4]; 3 nmol/g, day 7): 14.5 ± 1.7 mg/dL | Serum creatinine (Crea) levels ([4]; 3 nmol/g, day 7): 0.233 ± 0.014 mg/dL | renal safety concerns ([4]; rats): neither NA-1 nor polypeptide compound 14 caused significant renal safety concerns

YGRKKRRQRRRKLSSIESDV [NA-1, YGRKKRRQR RRKLSSIESDV, reference compound]
Tmax ([1]; male, SD, rat, in vivo, 3 nmol/g, intravenous bolus injection, enzyme inhibitor added immediately after blood collection, n = 3): 12 min | Cmax ([1]; male, SD, rat, in vivo, iv, 3 nmol/g, intravenous bolus injection over 10 min, 3 nmol/g, n = 3): 3800 ng/mL | Cmax ([1]; male, SD, rat, in vivo, iv, 3 nmol/g, intravenous bolus injection, enzyme inhibitor added immediately after blood collection, n = 3): 7250 ng/mL | half-life ([1]; male, SD, rat, in vivo, intravenous bolus injection over 10 min, 3 nmol/g, n = 3): 2.4 min | AUC(0-t) [1, 6]: 309 ng·h/mL | AUC(inf) [1, 6]: 315 ng·h/mL | AUClast/dose [1, 6]: 41 | MRTO-inf [1, 6]: 3.6 min | half-lives ([1]; intravenous bolus injection, 3 nmol/g (Table 5-1)): less than 3 min | AUC(inf) [1, 10]: 1248 ng·h/mL | AUClast/dose [1, 10]: 184.0 | MRTO-inf [1, 10]: 13.2 min | T1/2 [1, 10]: 2.4 min | hemolysis rates [2]: less than 5% | Relative remaining compound content (%) ([3]; 0min (standard 100%)): 100.0% | Relative remaining compound content (%) ([3]; 10min): 6.3% and 14.0% | Relative remaining compound content (%) ([3]; 20min): 2.2% | Relative remaining compound content (%) ([3]; 30min): 0.8% | Blood urea nitrogen (BUN) levels [4, 9]: 10.8 ± 1.9 mg/dL | Serum creatinine (Crea) levels [4, 9]: 0.198 ± 0.007 mg/dL | Blood urea nitrogen (BUN) levels ([4]; 3 nmol/g, day 2): 14.8 ± 1.9 mg/dL | Serum creatinine (Crea) levels ([4]; 3 nmol/g, day 2): 0.215 ± 0.003 mg/dL | Blood urea nitrogen (BUN) levels ([4]; 3 nmol/g, day 4): 17.2 ± 3.6 mg/dL | Serum creatinine (Crea) levels ([4]; 3 nmol/g, day 4): 0.208 ± 0.008 mg/dL | Blood urea nitrogen (BUN) levels ([4]; 3 nmol/g, day 7): 19 ± 3.3 mg/dL | Serum creatinine (Crea) levels ([4]; 3 nmol/g, day 7): 0.209 ± 0.009 mg/dL | increase of blood urea nitrogen level compared to before administration ([4]; rats, 3 nmol/g, day 4 and day 7): ≤ 2 fold | renal safety concerns ([4]; rats): neither NA-1 nor polypeptide compound 14 caused significant renal safety concerns
